Assay results as given in patent US4604239A, “Antibiotics” (Eli Lilly and Company, priority 1985, dated 1986).
Values joined by “and” are separate entries in the source; they are usually repeats but may differ in a detail not shown here. Identical values can stand only once.

system: S. pneumoniae; assay: experimental bacterial infection in mice; format: in vivo; details: two doses subcutaneously
Protocol: (§1) All of the A41030 factors tested have shown in vivo antimicrobial activity against experimental bacterial infections. When two doses of test compound were administered subcutaneously to mice in illustrative infections, the activity observed is measured as an ED50 value [effective dose in mg./kg. to protect fifty percent of the test animals: See Warren Wick, et al., J. Bacteriol. 81, 233-235 (1961)].

| Substance | ED50 |
| --- | --- |
| A41030 factor F | > 5.0 mg/kg |

system: Staph. aureus; assay: experimental bacterial infection in mice; format: in vivo; details: two doses subcutaneously
Protocol: as §1

| Substance | ED50 |
| --- | --- |
| A41030 factor F | < 0.31 mg/kg |
| A41030 factor E | < 0.31 mg/kg |

system: Peptococcus asaccharolyticus; assay: agar-dilution MIC; format: cell-based; details: Peptococcus asaccharolyticus 1302; Table 14
Protocol: The MIC values were determined by the agar-dilution method, and are recorded in Table 15, which follows.

| Substance | MIC |
| --- | --- |
| A41030 factor F | ≤ 0.25 µg/mL |
| A41030 factor E | ≤ 0.25 µg/mL |

system: Clostridium perfringens; assay: not given; format: cell-based; details: Clostridium perfringens 81; Table 14

| Substance | MIC |
| --- | --- |
| A41030 factor F | 1.0 µg/mL |
| A41030 factor E | 1.0 µg/mL |

system: Bacteroides vulgatis; assay: agar-dilution MIC; format: cell-based; details: Bacteroides vulgatis 1211; Table 14

| Substance | MIC |
| --- | --- |
| A41030 factor F | 32 µg/mL |
| A41030 factor E | 32 µg/mL |

system: Peptococcus prevoti; assay: agar-dilution MIC; format: cell-based; details: Peptococcus prevoti 1281; Table 14

| Substance | MIC |
| --- | --- |
| A41030 factor F | 32 µg/mL |
| A41030 factor E | 32 µg/mL |

system: Bacteroides melaninogenicus; assay: agar-dilution MIC; format: cell-based; details: Bacteroides melaninogenicus 2736; Table 14

| Substance | MIC |
| --- | --- |
| A41030 factor F | 1.0 µg/mL |
| A41030 factor E | 32 µg/mL |

system: Peptostreptococcus anaerobius; assay: agar-dilution MIC; format: cell-based; details: Peptostreptococcus anaerobius 1428; Table 14

| Substance | MIC |
| --- | --- |
| A41030 factor F | 32 µg/mL |
| A41030 factor E | 32 µg/mL |

system: Bacteroides fragilis; assay: agar-dilution MIC; format: cell-based; details: Bacteroides fragilis 111; Table 14
Description: (§2) The agar-dilution procedure described by the International Collaborative study (ICS) group was used to determine the minimum inhibitory concentrations (MIC's).

| Substance | MIC |
| --- | --- |
| A41030 factor F | 32 µg/mL |
| A41030 factor E | 64 µg/mL |

same assay, conditions: Bacteroides fragilis 1877; Table 14

| Substance | MIC |
| --- | --- |
| A41030 factor F | 32 µg/mL |
| A41030 factor E | 32 µg/mL |

same assay, conditions: Bacteroides fragilis 1936B; Table 14

| Substance | MIC |
| --- | --- |
| A41030 factor F | 32 µg/mL |
| A41030 factor E | 64 µg/mL |

system: Staphylococcus epidermidis; assay: agar-dilution MIC; format: cell-based; details: Staphylococcus epidermidis EPI1; Table 17
Description: as §2

| Substance | MIC |
| --- | --- |
| A41030 factor F | 0.25 µg/mL |
| A41030 factor E | 0.25 µg/mL |

system: Streptococcus pyogenes; assay: agar-dilution MIC; format: cell-based; details: Streptococcus pyogenes C203; Table 17
Description: as §2

| Substance | MIC |
| --- | --- |
| A41030 factor F | 2 µg/mL |
| A41030 factor E | 0.25 µg/mL |

system: Streptococcus sp. (Group D); assay: agar-dilution MIC; format: cell-based; details: Streptococcus sp. Group D 9960; Table 17
Description: as §2

| Substance | MIC |
| --- | --- |
| A41030 factor F | 4 µg/mL |
| A41030 factor E | 1 µg/mL |

same assay, conditions: Streptococcus sp. Group D X66; Table 17

| Substance | MIC |
| --- | --- |
| A41030 factor F | 4 µg/mL |
| A41030 factor E | 1 µg/mL |

system: Streptococcus pneumoniae; assay: agar-dilution MIC; format: cell-based; details: Streptococcus pneumoniae Park I; Table 17
Description: as §2

| Substance | MIC |
| --- | --- |
| A41030 factor F | 2 µg/mL |
| A41030 factor E | 0.25 µg/mL |

system: S. pyogenes; assay: experimental bacterial infection in mice; format: in vivo; details: S. pyogenes infection in mice; two doses subcutaneously

| Substance | ED50 |
| --- | --- |
| A41030 factor F | > 5.0 mg/kg |

system: Clostridium septicum; assay: agar-dilution MIC; format: cell-based; details: Clostridium septicum 1128; Table 14

| Substance | MIC |
| --- | --- |
| A41030 factor F | 1.0 µg/mL |
| A41030 factor E | 0.5 µg/mL |

system: Fusobacterium necrophorum; assay: agar-dilution MIC; format: cell-based; details: Fusobacterium necrophorum 6054A; Table 14

| Substance | MIC |
| --- | --- |
| A41030 factor F | 1.0 µg/mL |
| A41030 factor E | 0.5 µg/mL |

system: Bacteroides thetaiotaomicron; assay: not given; format: cell-based; details: Bacteroides thetaiotaomicron 1438; Table 14
Description: as §2

| Substance | MIC |
| --- | --- |
| A41030 factor F | 64 µg/mL |
| A41030 factor E | 64 µg/mL |

system: Staphylococcus aureus; assay: agar-dilution MIC; format: cell-based; details: Staphylococcus aureus S13E; Table 17

| Substance | MIC |
| --- | --- |
| A41030 factor F | 1 µg/mL |
| A41030 factor E | 0.25 µg/mL |

same assay, conditions: in µg/mL

| Substance | MIC |
| --- | --- |
| A41030 factor F | 0.5 and 1 |
| A41030 factor E | 0.125 and 0.25 |

system: not listed separately; assay: electrometric titration; format: physicochemical; details: electrometric titration in 66% dimethylformamide in water
Description: Antibiotic A41030 factor A is a white, crystalline solid.

| Substance | possibly additional pKa's |
| --- | --- |
| A41030 factor F | > 10 |
| A41030 factor E | > 10 |

system: Clostridium difficile; assay: not given; format: cell-based; details: Clostridium difficile 78; Table 16

| Substance | MIC |
| --- | --- |
| A41030 factor F | 1.0 µg/mL |
| A41030 factor E | 0.5 µg/mL |

same assay, conditions: Clostridium difficile 107B; Table 16

| Substance | MIC |
| --- | --- |
| A41030 factor F | 1.0 µg/mL |
| A41030 factor E | 0.5 µg/mL |

same assay, conditions: Clostridium difficile 111F; Table 16

| Substance | MIC |
| --- | --- |
| A41030 factor F | 2 µg/mL |
| A41030 factor E | 0.5 µg/mL |

same assay, conditions: Clostridium difficile 1153; Table 16

| Substance | MIC |
| --- | --- |
| A41030 factor F | 2 µg/mL |
| A41030 factor E | 1.0 µg/mL |

same assay, conditions: Clostridium difficile 2634; Table 16

| Substance | MIC |
| --- | --- |
| A41030 factor F | 2 µg/mL |
| A41030 factor E | 1.0 µg/mL |

same assay, conditions: Clostridium difficile 2994; Table 14

| Substance | MIC |
| --- | --- |
| A41030 factor E | 0.5 µg/mL |

same assay, conditions: Clostridium difficile 3424-5B; Table 16

| Substance | MIC |
| --- | --- |
| A41030 factor F | 1.0 µg/mL |
| A41030 factor E | 0.5 µg/mL |

same assay, conditions: Clostridium difficile 3816; Table 16

| Substance | MIC |
| --- | --- |
| A41030 factor F | 1.0 µg/mL |
| A41030 factor E | 0.5 µg/mL |

same assay, conditions: Clostridium difficile 3950D; Table 16

| Substance | MIC |
| --- | --- |
| A41030 factor E | 0.5 µg/mL |

same assay, conditions: Clostridium difficile 6890; Table 16

| Substance | MIC |
| --- | --- |
| A41030 factor F | 1.0 µg/mL |
| A41030 factor E | 0.5 µg/mL |

same assay, conditions: Clostridium difficile 8484; Table 16

| Substance | MIC |
| --- | --- |
| A41030 factor F | 1.0 µg/mL |
| A41030 factor E | 0.5 µg/mL |

same assay, conditions: Clostridium difficile A-194; Table 16

| Substance | MIC |
| --- | --- |
| A41030 factor F | 1.0 µg/mL |
| A41030 factor E | 0.5 µg/mL |

same assay, conditions: Clostridium difficile A-195; Table 16

| Substance | MIC |
| --- | --- |
| A41030 factor F | 1.0 µg/mL |
| A41030 factor E | 0.5 µg/mL |

same assay, conditions: Clostridium difficile A-196; Table 16

| Substance | MIC |
| --- | --- |
| A41030 factor F | 2 µg/mL |
| A41030 factor E | 1.0 µg/mL |

same assay, conditions: Clostridium difficile A-279; Table 16

| Substance | MIC |
| --- | --- |
| A41030 factor F | 1.0 µg/mL |
| A41030 factor E | 0.5 µg/mL |

same assay, conditions: Clostridium difficile A-280; Table 16

| Substance | MIC |
| --- | --- |
| A41030 factor F | 1.0 µg/mL |
| A41030 factor E | 0.5 µg/mL |

same assay, conditions: Clostridium difficile A-281; Table 16

| Substance | MIC |
| --- | --- |
| A41030 factor F | 2 µg/mL |
| A41030 factor E | 1.0 µg/mL |

same assay, conditions: Clostridium difficile WAL-2112; Table 16

| Substance | MIC |
| --- | --- |
| A41030 factor F | 1.0 µg/mL |
| A41030 factor E | 0.5 µg/mL |

same assay, conditions: Clostridium difficile WAL-3657; Table 16

| Substance | MIC |
| --- | --- |
| A41030 factor F | 1.0 µg/mL |
| A41030 factor E | 0.5 µg/mL |

same assay, conditions: Clostridium difficile WAL-4268; Table 16

| Substance | MIC |
| --- | --- |
| A41030 factor F | 1.0 µg/mL |
| A41030 factor E | 0.5 µg/mL |

system: Bacteroides corrodens; assay: agar-dilution MIC; format: cell-based; details: Bacteroides corrodens 1874; Table 14

| Substance | MIC |
| --- | --- |
| A41030 factor F | 32 µg/mL |
| A41030 factor E | 64 µg/mL |

system: not listed separately; assay: solubility; format: physicochemical; details: not given

| Substance | solubility (solvents) |
| --- | --- |
| A41030 factor F | soluble in the same solvents as factor A |
| A41030 factor E | soluble in the same solvents as factor A |

system: Eubacterium aerofaciens; assay: agar-dilution MIC; format: cell-based; details: Eubacterium aerofaciens 1235; Table 14

| Substance | MIC |
| --- | --- |
| A41030 factor F | 1.0 µg/mL |
| A41030 factor E | 0.5 µg/mL |

system: Fusobacterium symbiosum; assay: agar-dilution MIC; format: cell-based; details: Fusobacterium symbiosum 1470; Table 14

| Substance | MIC |
| --- | --- |
| A41030 factor F | 1.0 µg/mL |
| A41030 factor E | 1.0 µg/mL |

system: Hemophilus influenzae; assay: agar-dilution MIC; format: cell-based; details: Haemophilus influenzae 76; Table 17

| Substance | MIC |
| --- | --- |
| A41030 factor F | 32 µg/mL |
| A41030 factor E | 8 µg/mL |

same assay, conditions: Haemophilus influenzae C.L.; Table 17

| Substance | MIC |
| --- | --- |
| A41030 factor F | 32 µg/mL |
| A41030 factor E | 8 µg/mL |

system: Peptostreptococcus intermedius; assay: agar-dilution MIC; format: cell-based; details: Peptostreptococcus intermedius 1264; Table 14

| Substance | MIC |
| --- | --- |
| A41030 factor F | 1.0 µg/mL |
| A41030 factor E | 32 µg/mL |

system: Propionibacterium acnes; assay: agar-dilution MIC; format: cell-based; details: Propionibacterium acnes 79; Table 14
Description: Antibiotic A41030 factors A, B and C have also been tested and found to be active against a genus of anaerobic bacteria identified as Propionibacterium acnes.

| Substance | MIC |
| --- | --- |
| A41030 factor F | 1.0 µg/mL |
| A41030 factor E | 0.5 µg/mL |
